Laboratory results: patent US20100305068A1, “COMPOUNDS AND METHODS FOR MODULATING PROTEIN TRAFFICKING” (priority 2006, published 2010)
Like-named read-outs stand apart in the source and are kept apart here.

System: pdr5 ypt1^ts cells
Test: microbe, parasite or virus in culture
Assay type: cell-based, yeast
Conditions: for minimal effective concentration: Saccharomyces cerevisiae, lowest concentration tested giving growth above the 0 μM background, read-out: ypt1-ts MRC (minimal rescue concentration); for minimal effective concentration / optical density, ypt1-ts, 0.39 / optical density, ypt1-ts, 0.78 / optical density, ypt1-ts, 1.56 / optical density, ypt1-ts, 3.13 / optical density, ypt1-ts, 6.25 / optical density, ypt1-ts, 12.5 / optical density, ypt1-ts, 25: Table 2; for optical density, ypt1-ts, 0.39: 0.39 μM compound; for optical density, ypt1-ts, 0.39 / optical density, ypt1-ts, 0.78 / optical density, ypt1-ts, 1.56 / optical density, ypt1-ts, 3.13 / optical density, ypt1-ts, 6.25 / optical density, ypt1-ts, 12.5 / optical density, ypt1-ts, 25: background (0 μM) 0.058; for optical density, ypt1-ts, 0.78: 0.78 μM compound; for optical density, ypt1-ts, 1.56: 1.56 μM compound; for optical density, ypt1-ts, 3.13: 3.13 μM compound; for optical density, ypt1-ts, 6.25: 6.25 μM compound; for optical density, ypt1-ts, 12.5: 12.5 μM compound; for optical density, ypt1-ts, 25: 25 μM compound
Outline: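 Whole-cell yeast growth-rescue screen: pdr5 ypt1^ts cells (efflux pump inactivated), growth-arrested at 37° C., cultured with compounds at 37° C. Restoration of growth read by optical density.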

[1] = Table 3, 3.13 uM compound, 37° C., background (0 uM) 0.077
[2] = Table 3, 12.5 uM compound, 37° C., background (0 uM) 0.077
[3] = Table 3, 50 uM compound, 37° C., background (0 uM) 0.077

Compound | minimal effective concentration (37° C.) [µM] | optical density, ypt1-ts, 0.39 (37° C.) | optical density, ypt1-ts, 0.78 (37° C.) | optical density, ypt1-ts, 1.56 (37° C.) | optical density, ypt1-ts, 3.13 (37° C.) | optical density, ypt1-ts, 6.25 (37° C.) | optical density, ypt1-ts, 12.5 (37° C.) | optical density, ypt1-ts, 25 (37° C.) | optical density, 3.13 uM [1] | optical density, 12.5 uM [2] | optical density, 50 uM [3] | optical density, 3.13 uM | optical density, 12.5 uM | optical density, 50 uM
CC(=O)O[C@@H]1C[C@@]2(C)[C@H](c3ccoc3)C[C@H]3O[C@]32[C@]2(C)C(=O)C(O)=C3C(C)(C)C(=O)C=C[C@]3(C)[C@@H]12 [ANTHOTHECOL] | 3.13 | 0.161 | 0.085 | 0.12 | 0.262 | 0.537 | 0.581 | 0.557 |  |  |  |  |  | 
COc1ccc(C(=O)c2ccccc2)c(O)c1O [3-DESMETHYL- 5-DES- HYDROXY- SCLEROIN] |  |  |  |  |  |  |  |  | 0.11 | 0.149 | 0.556 |  |  | 
COc1ccc2c(c1)OCC(Cc1ccc(OC)c(O)c1)C2=O (centres unmarked) | 12.5 | 0.099 | 0.068 | 0.085 | 0.101 | 0.125 | 0.319 | 0.62 |  |  |  |  |  | 
CCC(=O)Nc1ccc(Cl)c(Cl)c1 [PROPANIL] | 12.5 | 0.084 | 0.072 | 0.076 | 0.097 | 0.108 | 0.217 | 0.564 |  |  |  |  |  | 
CCOC(=O)c1c(C)cc(O)c(C)c1O [METHYL[…], ETHYL ESTER] | 25 | 0.082 | 0.073 | 0.072 | 0.084 | 0.097 | 0.119 | 0.259 |  |  |  |  |  | 
CC1(C)C(=O)C=C[C@]2(C)[C@H]3CC[C@@]4(C)[C@H](c5ccoc5)OC(=O)[C@H]5O[C@]54[C@]3(C)C=C[C@@H]12 [7-DESACETOXY-6,7- DEHYDROGEDUNIN] | 12.5 | 0.094 | 0.071 | 0.074 | 0.093 | 0.099 | 0.171 | 0.308 |  |  |  |  |  | 
COc1ccc2oc3ccccc3c(=O)c2c1 [2-METHOXYXANTHONE] |  | 0.093 | 0.069 | 0.083 | 0.094 | 0.108 | 0.128 | 0.221 |  |  |  |  |  | 
Cc1[nH]c2ccccc2c1CN(C)C [2-METHYL GRAMINE] |  |  |  |  |  |  |  |  | 0.084 | 0.106 | 0.295 |  |  | 
COc1ccccc1-c1cc(=O)c2cccc(OC)c2o1 [8,2′- DIMETHOXY- FLAVONE] |  |  |  |  |  |  |  |  | 0.083 | 0.234 | 0.674 |  |  | 
COc1ccc(-c2coc3c(OC)c(OC)cc(O)c3c2=O)cc1 [ISO- TECTORIGENIN, 7-METHYL ETHER] |  |  |  |  |  |  |  |  | 0.09 | 0.147 | 0.595 |  |  | 
C[C@]12CCC3C(CC[C@H]4C[C@H](O)CC[C@]34C)C1CC[C@@H]2O (some centres unmarked) [EPIANDROSTANEDIOL] | 12.5 | 0.082 | 0.073 | 0.068 | 0.082 | 0.099 | 0.145 | 0.321 |  |  |  |  |  | 
Cc1ccc(C)c(OCCCC(C)(C)C(=O)O)c1 [GEMFIBROZIL, reference compound] | 3.13 | 0.106 | 0.082 | 0.1 | 0.219 | 0.442 | 0.615 | 0.358 |  |  |  |  |  | 
COc1c2occc2cc2c(=O)c3c(oc12)COc1cc2c(cc1-3)OCO2 [DEHYDRO- PACHYRRHIZONE] | 12.5 | 0.1 | 0.072 | 0.088 | 0.11 | 0.124 | 0.149 | 0.211 |  |  |  |  |  | 
O=c1c2ccccc2oc2ccccc12 [XANTHONE] | 6.25 | 0.096 | 0.072 | 0.093 | 0.109 | 0.152 | 0.445 | 0.598 |  |  |  |  |  | 
O=c1oc2ccccc2cc1O [3- HYDROXY- COUMARIN] |  |  |  |  |  |  |  |  | 0.083 | 0.109 | 0.299 |  |  | 
AVOCATIN A |  |  |  |  |  |  |  |  | 0.351 | 0.06 | 0.036 |  |  | 

Compound | minimal effective concentration (37° C.) [µM] | optical density, ypt1-ts, 0.39 (37° C.) | optical density, ypt1-ts, 0.78 (37° C.) | optical density, ypt1-ts, 1.56 (37° C.) | optical density, ypt1-ts, 3.13 (37° C.) | optical density, ypt1-ts, 6.25 (37° C.) | optical density, ypt1-ts, 12.5 (37° C.) | optical density, ypt1-ts, 25 (37° C.) | optical density, 3.13 uM [1] | optical density, 12.5 uM [2] | optical density, 50 uM [3] | optical density, 3.13 uM | optical density, 12.5 uM | optical density, 50 uM
O=C1c2ccccc2-c2cccc3cccc1c23 [BENZANTHRONE] | 3.13 | 0.108 | 0.09 | 0.123 | 0.263 | 0.491 | 0.547 | 0.383 |  |  |  |  |  | 
c1ccc2c(Cc3c[nH]c4ccccc34)c[nH]c2c1 [3,3'- DIINDOLYLMETHANE] | 3.13 | 0.205 | 0.097 | 0.118 | 0.164 | 0.154 | 0.263 | 0.035 |  |  |  |  |  | 
Oc1ccc2c(c1)OCC1c3cc4c(cc3OC21)OCO4 (centres unmarked) [MAACKIAIN] | 25 | 0.084 | 0.073 | 0.076 | 0.103 | 0.09 | 0.104 | 0.209 |  |  |  |  |  | 
C=C1C2CC[C@@]3(C)[C@H](c4ccoc4)OC(=O)C[C@]13O[C@H]1CC(=O)C(C)(C)C(CC(=O)OC)C21C (some centres unmarked) [[…], METHYL ESTER] | 3.13 | 0.119 | 0.087 | 0.107 | 0.21 | 0.53 | 0.56 | 0.577 |  |  |  |  |  | 
Cl.Clc1cccc(Cl)c1N=C1NCCN1 [CLONIDINE HYDRO- CHLORIDE, reference compound] |  |  |  |  |  |  |  |  |  |  |  | 0.237 | 0.095 | 0.064
COc1ccc2c(=O)cc(-c3ccccc3OC)oc2c1 [7,2′- DIMETHOXY- FLAVONE] |  |  |  |  |  |  |  |  | 0.098 | 0.156 | 0.3 |  |  | 
CC(=O)O[C@]1(C(C)=O)CC[C@H]2[C@@H]3C=C(C)C4=CC(=O)CC[C@]4(C)[C@H]3CC[C@@]21C [MEGESTROL ACETATE, reference compound] |  |  |  |  |  |  |  |  | 0.222 | 0.341 | 0.202 |  |  | 
C[n+]1c2cc(N)ccc2cc2ccc(N)cc21.[Cl-] [ACRIFLAV- INIUM HYDRO- CHLORIDE, reference compound] |  |  |  |  |  |  |  |  | 0.126 | 0.229 | 0.151 |  |  | 
CCCc1occc(=O)c1/C=C/O [2-PROPYL-3- HYDRO[…]-4-ONE] | 25 | 0.091 | 0.079 | 0.083 | 0.092 | 0.088 | 0.104 | 0.126 |  |  |  |  |  | 
C#CCCCCCCCCCCCC(O)CC(O)COC(C)=O (centres unmarked) [AVOCADYNE ACETATE] |  |  |  |  |  |  |  |  | 0.389 | 0.406 | 0.039 |  |  | 
O=C(/C=C/C=C/c1ccc2c(c1)OCO2)N1CCCCC1 [PIPERINE] |  |  |  |  |  |  |  |  | 0.107 | 0.135 | 0.377 |  |  | 
Nc1nc2ncc(=O)[nH]c2c(=O)[nH]1 [XANTHOP- TERIN] |  |  |  |  |  |  |  |  | 0.101 | 0.23 | 0.073 |  |  | 
C#CCCCCCCCCCCCC(O)CC(O)CO (centres unmarked) [AVO- CADYNE] |  |  |  |  |  |  |  |  | 0.132 | 0.425 | 0.265 |  |  | 
CCc1cccc(CC)c1N(COC)C(=O)CCl [ALACHLOR] |  |  |  |  |  |  |  |  | 0.101 | 0.142 | 0.45 |  |  | 
CC1(C)C2CC(=O)O[C@@]3(C)C4=CC(=O)O[C@@H](c5ccoc5)[C@]4(C)CCC3[C@@]2(C)C=C[C@H]1O (some centres unmarked) [DEOXY- ANDIROBIN LACTONE] |  |  |  |  |  |  |  |  | 0.723 | 0.678 | 0.642 |  |  | 
CNC(=O)Oc1ccccc1OC(C)C [PROPOXUR] |  |  |  |  |  |  |  |  | 0.194 | 0.289 | 0.231 |  |  | 
